Biological target: T1, long form of human GPR120 (Homo sapiens, UniProt Q5NUL3)
T1 construct: host or cells: PathHunter CHO-K1 GPR120 β-Arrestin Cell Line
T1 sequence (Q5NUL3 1-377 isoform Q5NUL3-1): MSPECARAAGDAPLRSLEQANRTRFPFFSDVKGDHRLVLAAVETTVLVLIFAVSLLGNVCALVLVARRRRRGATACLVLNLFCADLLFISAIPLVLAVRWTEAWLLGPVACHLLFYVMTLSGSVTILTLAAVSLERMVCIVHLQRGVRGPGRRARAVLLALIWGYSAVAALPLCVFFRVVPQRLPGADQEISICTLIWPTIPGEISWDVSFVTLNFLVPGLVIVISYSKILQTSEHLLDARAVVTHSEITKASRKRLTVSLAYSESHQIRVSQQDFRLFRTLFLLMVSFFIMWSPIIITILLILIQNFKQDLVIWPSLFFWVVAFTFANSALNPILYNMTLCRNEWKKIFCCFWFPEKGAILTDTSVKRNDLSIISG
Test: Human GPR120 DiscoveRx PathHunter Beta-Arrestin assay, Procedure β-arrestin A
Format: cell-based
Settings: PathHunter CHO-K1 GPR120 β-Arrestin Cell Line, long form of human GPR120, 3000 cells per well; read-out: hGPR120 β-arrestin A EC50
From the text: The binding of an agonist (medium/long chain fatty acids or small molecule agonists) to the G-protein-coupled receptor GPR120 activates phospholipase C, leading to release of intracellular Ca^+2 through the generation of inositol 1,4,5-trisphosphate (InsP3 or IP3). GPR120 activation can also trigger intracellular signaling via recruitment of Beta-Arrestin. In the present method, agonist-induced activation of the human GPR120 receptor is monitored through the use of PathHunter CHO-K1 GPR120 Beta-Arrestin Cell Line engineered by DiscoveRx, as detailed below. […]
Under these conditions, these fragments can interact and form an active Beta-gal enzyme complex through Enzyme Fragment Complementation (EFC). This active Beta-gal complex can enzymatically hydrolyse the substrate to produce a detectable light signal; therefore, activation as a function of agonist concentration can be expressed as an EC50 value to determine relative compound activities. […]
The plates were read on an EnVision instrument, using Protocol name: Luminescence, Plate type: 384 Costar, Measurement height: 3 mm, Measurement time: 1s, Aperture: 384 Plate aperture. The %activity relative to the positive control was calculated using the following equation: %Activity = (Countcompound −Countvehicle)/(Countpostivite control −Countvehicle) × 100% [formula] […]

SMILES | EC50 [nM]
O=C(O)CCc1ccc(OCc2c(C(F)(F)F)nsc2-c2ccc(Cl)cc2)c(Cl)c1Cl [Cpd 55, 3-(2,3-dichloro-4-[[5-(4-chlorophenyl)-3-(trifluoromethyl)-1,2-thiazol4-yl]methoxy]phenyl) propanoic acid] | 176
O=C(O)CCc1cc(F)c(OCc2c(Cl)nsc2-c2ccc(Cl)cc2)c(F)c1 [Cpd 75, 3-(4-[[3-chloro-5-(4-chlorophenyl)-1,2-thiazol-4-yl]methoxy]-3,5-difluorophenyl)propanoic acid] | 141

Reference: patent EP3409671B1, “ISOTHIAZOLE DERIVATIVES AS GPR120 AGONISTS FOR THE TREATMENT OF TYPE II DIABETES” (Janssen Pharmaceutica NV, priority 2014, dated 2015)
